Reference: article PMC4506051, “Pharmacokinetic Profiles of Active Ingredients and Its Metabolites Derived from Rikkunshito, a Ghrelin Enhancer, in Healthy Japanese Volunteers: A Cross-Over, Randomized Study” (PLoS ONE, 2015)

Experiments:
5-HT2BR = system: 5-HT2BR; design: method as in PMID 18439428; details: cited from earlier work
[1] = Randomized crossover quantitative trial: plasma pharmacokinetics of nine ingredients after rikkunshito 2.5, 5.0 or 7.5 g; details: for AUC(0-t) / Cmax / Tmax / half-life: plasma, po; for AUC(0-t): AUC0-last; for AUC(0-t) / Cmax / half-life / t 1/2: geometric mean (95% CI); for Cmax: C max; for Tmax: Median t max (range); for Tmax / Median t max (range): median (minimum–maximum)
Summary of the method: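 Plasma concentrations of ingredients were measured by LC–MS/MS or GC–MS in samples taken from pre-dose to 48 h. Dosing was a single oral rikkunshito dose (2.5, 5.0 or 7.5 g; three-arm randomized crossover) in fasted healthy Japanese volunteers aged 20–45.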

[2] = Formation of ingredients derived from rikkunshito in formulation, blood, and urine (S11 Table summary); details: after rikkunshito administration, per ingredient in the formulation; for Formation of ingredients: form found in Urine: BQL = below the quantification limit
[3] = Stability of ingredients in gastric pH solution (pH 1.2, 37°C); format: physicochemical; details: pH 1.2
Experimental: Rikkunshito gradually dissolved in acidic solution (pH 1.2) at 37°C, and the concentration of atractylodin after adding 0.25, 0.5, 1, and 2 h was measured by gas chromatography–mass spectrometry.

[4] = Exploratory trial: amount of rikkunshito ingredients in urine; format: in vivo, human; details: mean ± S.D., n = 4; for Amount in urine, 4–8 h: 4–8 h after single oral rikkunshito 7.5 g
Summary of the method: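 LC–MS/MS measurement of rikkunshito constituents in urine fractions (pre-dose, 0–4 h, 4–8 h) following one 7.5 g oral dose. Other constituents: enzymatic deglucuronidation at 37 °C for 2 h, then SPE cleanup with atractylenolide III or digoxin as IS; synephrine: erythromycin IS, Ostro plate.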

[5] = human, 2.5 g, rikkunshito 2.5 g single oral, n = 21
[6] = human, 5 g, rikkunshito 5.0 g single oral, n = 19
[7] = human, 5 g, t 1/2, rikkunshito 5.0 g single oral, n = 19
[8] = human, 7.5 g, rikkunshito 7.5 g single oral, n = 19
[9] = rikkunshito 7.5 g single oral, n = 19

SMILES | 5-HT2BR inhibitory/antagonistic activity (5-HT2BR) | AUC(0-t) [1, 5] | Cmax [1, 5] | Tmax [1, 5] | AUC(0-t) [1, 6] | Cmax [1, 6] | Tmax [1, 6] | half-life [1, 7] | AUC(0-t) [1, 8] | Cmax [1, 8] | Tmax [1, 8] | t 1/2 [1, 9] | Median t max (range) [1, 9] | Formation of ingredients: form found in Blood [2] | Formation of ingredients: form found in Urine [2] | Stability in gastric pH solution, Quantitative value ([3]; 0.5 h) | Stability in gastric pH solution, Quantitative value ([3]; 1 h) | Stability in gastric pH solution, Quantitative value ([3]; 2 h) | further results
COc1ccc(-c2oc3c(OC)c(OC)c(OC)c(OC)c3c(=O)c2OC)cc1OC [Heptamethoxyflavone, 3,3′,4′,5,6,7,8-heptamethoxyflavone] | most potent 5-HT2BR antagonistic activity among all rikkunshito ingredients | 0.0849 ng·h/mL | 0.0388 ng/mL | 0.5 h | 0.124 ng·h/mL | 0.0582 ng/mL | 1 h | 90 min | 0.225 ng·h/mL | 0.105 ng/mL | ≤ 1 h | 1.51 (1.15–1.98) h | 1.00 (0.250–1.02) h | Heptamethoxyflavone | BQL | 25.5 ng/mL | 30.7 ng/mL | 28.7 ng/mL | half-life ([1]; human, 2.5 g, t 1/2, rikkunshito 2.5 g single oral, n = 21): 115 min; t 1/2 ([1]; rikkunshito 7.5 g single oral, n = 19, listed as heptamethoxyflavone): < 10 h
O=C1C[C@@H](c2ccc(O)cc2)Oc2cc(O)cc(O)c21 [Naringenin] | most potent 5-HT2BR antagonistic activity among all rikkunshito ingredients | 1.65 ng·h/mL | 0.376 ng/mL | 5.83 h | 3.32 ng·h/mL | 0.878 ng/mL | 4 h | 268 min | 4.63 ng·h/mL | 1.15 ng/mL | > 3 h | 5.38 (3.31–8.76) h | 4.00 (2.00–6.00) h | Naringenin Conjugate metabolites of naringenin^a | Naringenin | 2030 ng/mL | 2140 ng/mL | 1990 ng/mL | half-life ([1]; human, 7.5 g, t 1/2, rikkunshito 7.5 g single oral, n = 19): < 600 min; Amount in urine, 0–4 h ([4]; 0–4 h after single oral rikkunshito 7.5 g): BQL; Amount in urine, 4–8 h [4]: 2380 ± 2940 ng; Amount in urine, 4–8 h ([4]; listed as naringenin): 2,380 ng; Amount in urine, Pre ([4]; preadministration (between dinner and bedtime)): BQL
COc1ccc(-c2cc(=O)c3c(OC)c(OC)c(OC)c(OC)c3o2)cc1OC [Nobiletin] | most potent 5-HT2BR antagonistic activity among all rikkunshito ingredients |  |  |  |  |  |  |  |  |  |  |  |  | Nobiletin | BQL | 18.1 ng/mL | 21.5 ng/mL | 19.6 ng/mL | t max values ([1]; human, in vivo): 15 min-1 h
